Experiments:
Assay type in all cases: biochemical
MMP-13 [1] = molecular target: T1, MMP-13 (Homo sapiens, UniProt P45452)
MMP-2 = molecular target: T2, MMP-2 (Homo sapiens, UniProt P08253); experiment: MMP-2 enzyme assay with fTHP substrates; conditions: 200 nM
T2 sequence (P08253 110-660): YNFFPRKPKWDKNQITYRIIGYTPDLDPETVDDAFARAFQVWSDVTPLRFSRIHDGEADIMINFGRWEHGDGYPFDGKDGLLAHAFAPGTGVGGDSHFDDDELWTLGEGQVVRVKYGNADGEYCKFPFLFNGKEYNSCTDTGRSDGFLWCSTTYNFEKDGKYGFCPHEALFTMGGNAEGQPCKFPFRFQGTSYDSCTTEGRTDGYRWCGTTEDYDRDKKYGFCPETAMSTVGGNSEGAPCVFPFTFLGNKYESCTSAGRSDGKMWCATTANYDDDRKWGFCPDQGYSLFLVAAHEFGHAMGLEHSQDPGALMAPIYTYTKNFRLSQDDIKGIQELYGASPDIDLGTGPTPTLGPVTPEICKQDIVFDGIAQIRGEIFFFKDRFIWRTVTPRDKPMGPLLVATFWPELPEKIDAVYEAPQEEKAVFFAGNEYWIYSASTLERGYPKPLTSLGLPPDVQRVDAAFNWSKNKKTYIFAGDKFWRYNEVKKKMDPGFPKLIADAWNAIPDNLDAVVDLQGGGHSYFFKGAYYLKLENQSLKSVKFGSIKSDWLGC

MMP-8 = MMP-8 (Homo sapiens, UniProt P22894); experiment: MMP-8 enzyme assay with fTHP substrates; conditions: 200 nM
Chain of MMP-8 (P22894 101-467, species assumed): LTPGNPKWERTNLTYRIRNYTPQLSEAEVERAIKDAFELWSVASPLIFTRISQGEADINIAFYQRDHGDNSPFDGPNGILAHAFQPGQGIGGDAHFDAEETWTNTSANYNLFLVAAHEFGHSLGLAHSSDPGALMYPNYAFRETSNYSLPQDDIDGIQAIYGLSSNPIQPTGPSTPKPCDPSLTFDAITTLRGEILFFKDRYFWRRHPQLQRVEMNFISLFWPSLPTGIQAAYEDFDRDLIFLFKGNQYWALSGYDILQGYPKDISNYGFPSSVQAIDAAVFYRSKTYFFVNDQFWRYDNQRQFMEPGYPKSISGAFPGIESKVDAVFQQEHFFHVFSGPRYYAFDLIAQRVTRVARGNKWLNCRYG

MMP-13 [2] = molecular target: T1, MMP-13; experiment: In vitro type II collagen cleavage assay; conditions: 20 μM; intact type II collagen remaining after 24 h at 37 °C

CNC(=O)[C@H](NC(=O)c1ccc(-c2ccc(CSc3nc4c(c(=O)[nH]3)CCC4)cc2)o1)C(C)C [(R)-17a]
loss of inhibition activity vs MMP-13 compared to the (S)-enantiomer (MMP-13 [1]; D-valine analogue compared to L-valine analogue): ca. 40 fold

CNC(=O)[C@@H](NC(=O)c1ccc(-c2ccc(CSc3nc4c(c(=O)[nH]3)CCC4)cc2)o1)C(C)C [(S)-17a]
improvement of MMP-13 inhibition potency compared to 5 (MMP-13 [1]; compared to starting inhibitor 5): ~300 fold
inhibition of MMP-2 in single-dose assay (MMP-2): moderately active
inhibition of MMP-8 in single-dose assay (MMP-8): moderately active

Cc1ccc(CSc2nc(O)c3c(n2)CCC3)cc1 [Compound 5]
inhibition of collagenolysis (type II collagen cleavage by MMP-13) (MMP-13 [2]): nearly inactive
